Tests used:
HCT116 dual cells = assay: HCT116 Cell Assay (Lucia luciferase reporter of Type I interferon induction); assay type: cell-based, human; details: pBR322/BstNI DNA transfection, Lucia luciferase at 48 h, relative to 10 uM compound 39
From the text: HCT116 dual cells (Invivogen, San Diego, Calif., USA) are derived from the human HCT116 colorectal carcinoma cell line. Cells have been selected for the stable integration of SEAP and Luciferase reporter genes, which expression is under the control of 5 tandem response elements for NF-KB/AP1 and STAT1/STAT2, respectively. The cell line was used to monitor Type I interferon induction and subsequent signaling by measuring the activity of the Lucia luciferase secreted in the culture medium.
HCT116 cells were plated in 96-well plate(s) at 40,000 cells/well in 100 uL DMEM supplemented with 10% FBS and 25 mM Hepes (pH 7.2-7.5). After overnight settling, cells were treated with TREX1i for 4 h (maximum DMSO fraction was 0.1%) before 1.25 ug/mL pBR322/BstNI restriction digest (New England Biolabs, Ipswich, Mass., USA) was transfected with Lipofectamine LTX (ThermoFisher, Grand Island, N.Y., USA), according to product manual recommendations. Briefly, Lipofectamine LTX (0.4 uL/well) was diluted in OptiMEM (5 uL/well). pBR322/BstNI (100 ng/well) was diluted in OptiMEM (5 uL/well) before Plus reagent (0.1 uL/100 ng DNA) was added. After 5 min incubation at room temperature, the DNA mixture was mixed dropwise with the diluted Lipofectamine LTX. After an additional 10 min incubation, the transfection mix (10 uL/well) was added to the cells. Cells were maintained at 37° C. for 48 h before monitoring the Lucia Luciferase activity from the cell culture medium. EC50 values were calculated by comparing the measured luminescence relative to 10 uM compound 39 (100% inhibition) and no inhibitor (0% inhibition) controls using non-linear least-squares four parameter fits in either Genedata Screener or GraphPad Prism (GraphPad Software, Inc.).

[1] = molecular target: T1, human TREX2 (residues M44-A279) (Homo sapiens, UniProt Q9BQ50); assay: TREX2 Biochemical Assay (fluorescence, dsDNA substrate degradation); details: 2.5 nM TREX2, 60 nM dsDNA substrate, 25 minutes at room temperature
T1 construct: human TREX2 (residues M44-A279, expressed in E. coli); His-TEV (His tag with TEV site) (N); made in house; host or cells: E. coli
T1 sequence (Q9BQ50 44-279 isoform Q9BQ50-1): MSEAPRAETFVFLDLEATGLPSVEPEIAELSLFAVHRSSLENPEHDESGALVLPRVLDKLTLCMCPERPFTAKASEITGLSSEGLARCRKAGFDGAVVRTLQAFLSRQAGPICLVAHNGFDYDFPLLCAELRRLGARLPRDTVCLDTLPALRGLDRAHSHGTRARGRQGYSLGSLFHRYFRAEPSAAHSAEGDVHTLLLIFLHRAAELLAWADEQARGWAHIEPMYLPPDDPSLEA
Experimental: Degradation of the dsDNA liberates free fluorophore to produce a fluorescent signal. Specifically, 7.5 μL of N-terminally His-Tev tagged human TREX2 (residues M44-A279, expressed in E. coli and purified in house) in reaction buffer (50 mM Tris (pH 7.4), 150 mM NaCl, 2 mM DTT, 0.1 mg/mL BSA, 0.01% (v/v) Tween-20 and 100 mM MgCl2) was added to a 384-well Black ProxiPlate Plus (Perkin Elmer) which already contained compound (150 nL) at varying concentrations as a 10 point dose-response in DMSO. To this was added 7.5 μL of dsDNA substrate (Strand A: 5′ TEX615/GCT AGG CAG 3′; Strand B: 5′ CTG CCT AGC/IAbRQSp (IDT)) in reaction buffer. Final concentrations were 2.5 nM TREX2, 60 nM dsDNA substrate in reaction buffer with 1.0% DMSO (v/v). After 25 minutes at room temperature, reactions were quenched by the addition of 5 μL of stop buffer (same as reaction buffer plus 200 mM EDTA). Final concentrations in the quenched reaction mixture were […] TREX2, 45 nM DNA and 50 mM EDTA in a volume of 20 μL. After a 5-minute incubation at room temperature, plates were read in a laser sourced Envision (Perkin-Elmer), measuring fluorescence at 615 nm following excitation w/570 nm light. IC50 values were calculated by comparing the measured fluorescence at 615 nm ratio relative to control wells pre-quenched w/stop buffer (100% inhibition) and no inhibitor (0% inhibition) controls as using non-linear least square four parameter fits and either Genedata or GraphPad Prism (GraphPad Software, Inc.).

full length human TREX1 = molecular target: T2, full length human TREX1 (Homo sapiens, UniProt Q9NSU2); assay: TREX1 Biochemical Assay (fluorescence, dsDNA substrate degradation); details: 150 pM TREX1, 60 nM dsDNA substrate, 25 minutes at room temperature
T2 construct: N-terminally His-Tev tagged full length human TREX1; His-TEV (His tag with TEV site) (N); made in house; host or cells: E. coli
T2 sequence (Q9NSU2 1-314): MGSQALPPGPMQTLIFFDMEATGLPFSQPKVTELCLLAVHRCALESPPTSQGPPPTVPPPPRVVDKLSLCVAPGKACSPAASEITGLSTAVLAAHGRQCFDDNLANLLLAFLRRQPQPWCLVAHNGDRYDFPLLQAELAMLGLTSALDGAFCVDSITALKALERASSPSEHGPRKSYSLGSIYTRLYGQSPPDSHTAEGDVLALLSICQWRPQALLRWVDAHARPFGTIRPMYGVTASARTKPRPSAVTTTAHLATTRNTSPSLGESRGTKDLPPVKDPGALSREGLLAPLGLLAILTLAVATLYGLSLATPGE
Experimental: Degradation of the dsDNA liberates free fluorophore to produce a fluorescent signal. Specifically, 7.5 μL of N-terminally His-Tev tagged full length human TREX1 (expressed in E. coli and purified in house) in reaction buffer (50 mM Tris (pH 7.4), 150 mM NaCl, 2 mM DTT, 0.1 mg/mL BSA, 0.01% (v/v) Tween-20 and 100 mM MgCl2) was added to a 384-well Black ProxiPlate Plus (Perkin Elmer) which already contained compound (150 nL) at varying concentrations as a 10 point dose-response in DMSO. To this was added 7.5 μL of dsDNA substrate (Strand A: 5′ TEX615/GCT AGG CAG 3′; Strand B: 5′ CTG CCT AGC/IAbRQSp (Integrated DNA Technologies)) in reaction buffer. Final concentrations were 150 pM TREX1, 60 nM dsDNA substrate in reaction buffer with 1.0% DMSO (v/v). After 25 minutes at room temperature, reactions were quenched by the addition of 5 μL of stop buffer (same as reaction buffer plus 200 mM EDTA). Final concentrations in the quenched reaction were 112.5 pM TREX1, 45 nM DNA and 50 mM EDTA in a volume of 20 μL. After a 5-minute incubation at room temperature, plates were read in a laser sourced Envision (Perkin-Elmer), measuring fluorescence at 615 nm following excitation w/570 nm light. IC50 values were calculated by comparing the measured fluorescence at 615 nm ratio relative to control wells pre-quenched w/stop buffer (100% inhibition) and no inhibitor (0% inhibition) controls as using non-linear least square four parameter fits and either Genedata or GraphPad Prism (GraphPad Software, Inc.).

[2] = Homo sapiens, HCT-116, 4 h pre-treatment

| Compound | EC50 (HCT116 dual cells; 4 h pre-treatment) | IC50 [1] | IC50 (full length human TREX1) | EC50 (HCT116 dual cells; [2]) |
| --- | --- | --- | --- | --- |
| 2-(dibenzylamino)-5-ethoxy-N-(isoxazol-4-yl)-1-methyl-6-oxo-1,6-dihydropyrimidine-4-carboxamide [Example 1] | 1000 to 10000 nM | < 1 µM | < 100 nM | – |
| Cc1ncc(C(c2ccccc2Cl)N(C)c2nc(C(=O)Nc3cnoc3)c(O)c(=O)n2C)cn1 (single isomer, unassigned) [Example 82] | – | > 100 µM | > 10000 nM | – |
| CN(CCc1ccccc1)c1nc(C(=O)Nc2cnoc2)c(O)c(=O)n1C [Example 3] | – | 10 to 100 µM | 100 to 1000 nM | – |
| CN(Cc1ccc(C(F)(F)F)cc1)c1nc(C(=O)Nc2cnoc2)c(O)c(=O)n1C [Example 12] | – | 10 to 100 µM | 100 to 1000 nM | – |
| CN(Cc1ccccc1-c1cccc(Cl)c1)c1nc(C(=O)Nc2cnoc2)c(O)c(=O)n1C [Example 17] | – | 1 to 10 µM | < 100 nM | – |
| CN(Cc1cccnc1-c1cccc(Cl)c1)c1nc(C(=O)Nc2cnoc2)c(O)c(=O)n1C [Example 20] | – | 1 to 10 µM | 100 to 1000 nM | – |
| CN(Cc1cnn(C)c1)c1nc(C(=O)Nc2cnoc2)c(O)c(=O)n1C [Example 33] | – | 10 to 100 µM | 100 to 1000 nM | – |
| CN(Cc1cncnc1)c1nc(C(=O)Nc2cnoc2)c(O)c(=O)n1C [Example 34] | – | 10 to 100 µM | 100 to 1000 nM | – |
| CN(Cc1ccncc1)c1nc(C(=O)Nc2cnoc2)c(O)c(=O)n1C [Example 37] | – | 10 to 100 µM | 100 to 1000 nM | – |
| Cc1csc(CN(C)c2nc(C(=O)Nc3cnoc3)c(O)c(=O)n2C)n1 [Example 38] | – | 1 to 10 µM | 100 to 1000 nM | – |
| CN1CCC(C(c2ccccc2)N(C)c2nc(C(=O)Nc3cnoc3)c(O)c(=O)n2C)CC1 (stereo not drawn) [Example 49] | – | 10 to 100 µM | 100 to 1000 nM | – |
| CN(c1nc(C(=O)Nc2cnoc2)c(O)c(=O)n1C)C1CCCCC1 [Example 72] | – | 1 to 10 µM | 100 to 1000 nM | – |
| CC(=O)N1CCC(N(C)c2nc(C(=O)Nc3cnoc3)c(O)c(=O)n2C)CC1 [Example 73] | – | 10 to 100 µM | 100 to 1000 nM | – |
| CN(C)C(=O)c1ccccc1CN(C)c1nc(C(=O)Nc2cnoc2)c(O)c(=O)n1C [Example 75] | – | 10 to 100 µM | 100 to 1000 nM | – |
| CN(C)C(=O)c1ccc(CN(C)c2nc(C(=O)Nc3cnoc3)c(O)c(=O)n2C)cc1 [Example 76] | – | 10 to 100 µM | 100 to 1000 nM | – |
| CN(C)C(=O)c1cccc(CN(C)c2nc(C(=O)Nc3cnoc3)c(O)c(=O)n2C)c1 [Example 77] | – | 10 to 100 µM | 100 to 1000 nM | – |

Other lines, results leading:

| EC50 (HCT116 dual cells; 4 h pre-treatment) | IC50 [1] | IC50 (full length human TREX1) | EC50 (HCT116 dual cells; [2]) | Compound |
| --- | --- | --- | --- | --- |
| – | < 1 µM | < 100 nM | < 1000 nM | CN(c1nc(C(=O)Nc2cnoc2)c(O)c(=O)n1C)C(c1ccccc1)c1ccccc1Cl (single isomer, unassigned) [Example 39] |
| < 1000 nM | < 1 µM | < 100 nM | – | CN(c1nc(C(=O)Nc2cnoc2)c(O)c(=O)n1C)C(c1ccccc1)c1ccccc1Cl (single isomer, unassigned) [Example 40] |
| – | < 1 µM | < 100 nM | < 1000 nM | CN(c1nc(C(=O)Nc2cnoc2)c(O)c(=O)n1C)C(c1ccccc1)c1ccccn1 (single isomer, unassigned) [Example 41] |
| 1000 to 10000 nM | 1 to 10 µM | < 100 nM | – | CN(c1nc(C(=O)Nc2cnoc2)c(O)c(=O)n1C)C(c1ccccc1)c1ccccn1 (single isomer, unassigned) [Example 42] |
| – | < 1 µM | < 100 nM | 1000 to 10000 nM | Cc1ccc(C(c2ccccc2)N(C)c2nc(C(=O)Nc3cnoc3)c(O)c(=O)n2C)cn1 (single isomer, unassigned) [Example 43] |
| < 1000 nM | < 1 µM | < 100 nM | – | Cc1ccc(C(c2ccccc2)N(C)c2nc(C(=O)Nc3cnoc3)c(O)c(=O)n2C)cn1 (single isomer, unassigned) [Example 44] |
| – | 1 to 10 µM | < 100 nM | 1000 to 10000 nM | CN(c1nc(C(=O)Nc2cnoc2)c(O)c(=O)n1C)C(c1ccccc1)C1CCOCC1 (single isomer, unassigned) [Example 45] |

Source: patent publication US20220289728A1, “MODULATORS OF TREX1” (Constellation Pharmaceuticals, Inc., priority 2019, published 2022)
